# Assay results published in patent US20060204957A1, “Mta1s, a steriod hormone receptor corepressor” (priority 2002, published 2006).
# Tests used:
# [1] = tested on: PRE-mediated transcription; test: PRE-mediated transcription in ZR-75R cells; format: cell-based, human; conditions: MTA1s-overexpressing ZR-75R cells
# Procedure: Transfection was performed using a Fugene-6 kit (Roche Biochemical, New Jersey) as per the manufacturer's instructions. Cells were transiently cotransfected with a reporter construct and (β-galactosidase, and assayed for luciferase activity as described.
# ERα = molecular target: T1, ERα (Homo sapiens, UniProt P03372); conditions: yeast AH109 two-hybrid
# T1 sequence (P03372 1-536): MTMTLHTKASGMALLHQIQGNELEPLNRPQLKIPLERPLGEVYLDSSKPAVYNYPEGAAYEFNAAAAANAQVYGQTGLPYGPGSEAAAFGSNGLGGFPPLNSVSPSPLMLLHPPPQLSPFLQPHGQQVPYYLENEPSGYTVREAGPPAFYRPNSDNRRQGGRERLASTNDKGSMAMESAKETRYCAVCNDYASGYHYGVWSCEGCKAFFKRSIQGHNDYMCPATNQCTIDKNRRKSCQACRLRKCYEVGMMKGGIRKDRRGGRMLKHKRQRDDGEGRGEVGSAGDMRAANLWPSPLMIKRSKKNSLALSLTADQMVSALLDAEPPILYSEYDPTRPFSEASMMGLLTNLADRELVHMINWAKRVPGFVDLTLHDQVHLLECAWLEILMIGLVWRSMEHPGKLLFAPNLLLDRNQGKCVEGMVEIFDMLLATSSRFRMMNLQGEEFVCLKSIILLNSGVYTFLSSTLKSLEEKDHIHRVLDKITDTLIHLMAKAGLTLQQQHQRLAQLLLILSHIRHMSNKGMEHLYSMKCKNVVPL
# T1 sequence (Q13330 1-429 isoform Q13330-2 partner limits assumed): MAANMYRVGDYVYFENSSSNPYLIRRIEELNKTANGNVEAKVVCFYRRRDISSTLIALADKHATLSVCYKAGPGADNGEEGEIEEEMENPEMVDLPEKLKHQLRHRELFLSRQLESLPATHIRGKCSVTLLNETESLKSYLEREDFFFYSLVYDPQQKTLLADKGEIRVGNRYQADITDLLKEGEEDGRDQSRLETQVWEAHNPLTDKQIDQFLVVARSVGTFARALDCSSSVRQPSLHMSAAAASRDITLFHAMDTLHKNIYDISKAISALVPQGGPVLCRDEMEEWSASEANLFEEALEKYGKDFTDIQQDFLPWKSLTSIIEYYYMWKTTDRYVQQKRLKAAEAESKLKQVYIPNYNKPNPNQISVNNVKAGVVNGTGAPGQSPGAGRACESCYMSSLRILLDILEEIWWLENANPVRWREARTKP
# ZR-75R cells = test: Growth of ZR-75R cells in monolayer culture; format: cell-based, human
# Excerpt: FIGS. 11A-11E. MTA1s may stimulate aggressive phenotypes in breast cancer cells. FIG. 11A illustrates an example of MTA1s overexpression inhibiting PRE-driven but not RARE-driven transcription. FIG. […] illustrates the Growth-rate of ZR/pcDNA or ZR/MTA1s cells in monolayer culture in the presence of E2 alone or with ICI 182780 (10^−9 M for 4 days). FIG. 11C show an exemplary effect of MTA1s expression on anchorage independent growth of ZR/pcDNA and ZR/MTA1s cells grown in 10% serum in the presence or absence of ICI 182780 (10^−9 M) or 4HT (10^−8 M) for 14 days. […] FIG. 11E illustrates that MTA1s may induce tumorigenesis of breast cancer cells. 5×10^6 cells were subcutaneously inoculated in the athymic nude mice (n=10), and tumor volumes at day 21 were recorded.
# ER = test: Confocal localization of ER in ZR-75R clones after estradiol; format: cell-based, human
# Procedure: FIGS. 3A-3H. MTA1s typically localizes in the cytoplasm and interacts with ER. FIG. 3A illustrates an example of confocal microscopy of MCF-7 cells transiently transfected with T7-tagged MTA1 or MTA1s constructs. FIG. 3B illustrates exemplary expression of T7-MTA1s in ZR75 clones. FIG. 3C illustrates exemplary nuclear and cytoplasmic fractions that were assessed by immunoblotting with the indicated antibodies. […] FIG. 3F illustrates exemplary GST pull-down assays. […] FIG. 3H illustrates an example of expression of MTA1s and ERα in indicated cells by confocal microscopy.
# The cellular localization of T7-MTA1s, and ER was determined using indirect immunofluorescence as described in Mazumdar et al., 2001, herein incorporated by reference. Cells were treated with or without anti-T7 mAb or ER Ab followed by 546-Alexa-labeled goat anti-mouse Ab or 488-Alexa.
smiles,measurement,setting,value
CC(=O)[C@H]1CC[C@H]2[C@@H]3CCC4=CC(=O)CC[C@]4(C)[C@H]3CC[C@]12C [progesterone],stimulation of PRE-mediated transcription,[1],failed to stimulate
C[C@]12CC[C@@H]3c4ccc(O)cc4C[C@@H](CCCCCCCCC[S+]([O-])CCCC(F)(F)C(F)(F)F)[C@H]3[C@@H]1CC[C@@H]2O (stereo partly drawn) [ICI 182780],effect on interaction between ERα and MTA1s,ERα,failed to block
"C[C@]12CC[C@@H]3c4ccc(O)cc4CC[C@H]3[C@@H]1CC[C@@H]2O [estradiol, 17β-estradiol]",cell growth response,ZR-75R cells; ZR-75R cells expressing MTA1s,did not respond
same,cell growth,ZR-75R cells; ZR-75R cells expressing control vector,stimulated
same,redistribution of ER to the nucleus,ER; ZR-75R/vector cells,rapidly redistributed the ER to the nucleus
same,cells in which ER was not redistributed to the nucleus,ER; estradiol-activated ZR-75R/MTA1s cells,over 90%
